Test results from patent US11746116B2, “Antibiotic resistance breakers” (KING'S COLLEGE LONDON, priority 2017, dated 2023).
≈ marks a conversion by molar mass, not a printed value. Like-named read-outs stand apart in the source and are kept apart here.

Experiments:
Assay in all cases: MIC, microdilution broth method
EMRSA16 = assay type: cell-based, Staphylococcus aureus
PA01 = assay type: cell-based, Pseudomonas aeruginosa; conditions: for MIC, PA01: ESKAPE panel, Gram-negative
M6 = assay type: cell-based; conditions: for MIC, M6: ESKAPE panel, Gram-negative
EC12923 = assay type: cell-based; conditions: for MIC, EC12923: ESKAPE panel, Gram-negative
MSSA9144 = assay type: cell-based, Staphylococcus aureus; conditions: for MIC, MSSA9144: ESKAPE panel, Gram-positive
VSE775 = assay type: cell-based, Enterococcus faecalis; parameters: MIC, VSE775: unit not given beside the values; conditions: for MIC, VSE775: ESKAPE panel, Gram-positive
KP13368 = assay type: cell-based; conditions: for MIC, KP13368: ESKAPE panel, Gram-negative
VRE12204 = assay type: cell-based, Enterococcus faecium; conditions: in µg/mL; for MIC: VRE12204; for MIC, VRE12204: ESKAPE panel, Gram-positive
VRE12201 = assay type: cell-based, Enterococcus faecalis; conditions: for MIC, VRE12201: ESKAPE panel, Gram-positive
EMRSA15 = assay type: cell-based, Staphylococcus aureus
AYE = assay type: cell-based, Acinetobacter baumannii; conditions: for MIC, AYE: ESKAPE panel, Gram-negative
Ab17978 = assay type: cell-based; conditions: for MIC, Ab17978: ESKAPE panel, Gram-negative
PA13437 = assay type: cell-based; conditions: ESKAPE panel, Gram-negative
[1] = PA01, Normal (no PMBN), in µg/mL
[2] = KP13368, Normal (no PMBN), in µg/mL
[3] = AYE, Normal (no PMBN), in µg/mL
[4] = Ab17978, Normal (no PMBN), in µg/mL
[5] = ESKAPE panel, Gram-positive, in µg/mL
[6] = Staphylococcus aureus (EMRSA16), Gram-Positive (Table 14), read-out: MIC
[7] = Pseudomonas aeruginosa (PA01), Gram-Negative, read-out: MIC
[8] = Klebsiella pneumoniae (M6), Gram-Negative, read-out: MIC
[9] = Escherichia coli (EC12923), Gram-Negative, read-out: MIC
[10] = Staphylococcus aureus (MSSA9144), Gram-Positive, read-out: MIC
[11] = Enterococcus faecalis, Enterococcus (VRE775), Gram-Positive, read-out: MIC
[12] = Klebsiella pneumoniae (KP13368), Gram-Negative, read-out: MIC
[13] = Enterococcus faecalis, Enterococcus (VRE12201), Gram-Positive, read-out: MIC
[14] = Staphylococcus aureus, Staphylococcus aureus (EMRSA15), Gram-Positive (Table 14), read-out: MIC
[15] = Acinetobacter baumannii (AB17978), Gram-Negative, read-out: MIC

MIC, EMRSA16 (EMRSA16; [5]) | MIC, PA01 (PA01; in µg/mL) | MIC, M6 (M6; in µg/mL) | MIC, EC12923 (EC12923; in µg/mL) | MIC, MSSA9144 (MSSA9144; in µg/mL) | MIC, VSE775 (VSE775) | MIC, KP13368 (KP13368) [µg/mL] | MIC, VRE12204 (VRE12204) | MIC, VRE12201 (VRE12201; in µg/mL) | MIC, EMRSA15 (EMRSA15; [5]) | MIC, Ab17978 (Ab17978; in µg/mL) | SMILES | MIC (EMRSA16; EMRSA16, in µg/mL) | MIC (PA01; [1]) | MIC (M6; M6, Normal (no PMBN), in µg/mL) | MIC (MSSA9144; MSSA9144, in µg/mL) | MIC (VSE775; VSE775, in µg/mL) | MIC (VRE12204) | MIC (VRE12201; VRE12201, in µg/mL) | MIC (AYE; [3]) | MIC (Ab17978; [4]) | further results
– | – | – | – | – | – | – | – | – | – | – | C[C@H]1COc2c(N3CCC(Nc4ncccn4)C3)c(F)cc3c(=O)c(C(=O)O)cn1c23 (stereo partly drawn) [Compound 82-KSN-L7, (3S)-9-fluoro-3-methyl-7-oxo-10-(3-(pyrimidin-2-ylamino)-pyrrolidin-1-yl)-2,3-dihydro-7H-[1,4]oxazino[2,3,4-ij]quinoline-6-carboxylic acid] | 4 | 16 | 2-4 | ≤0.125-4 | 1-2 | 4 | 0.5 | 64 | 1 | MIC (EC12923; EC12923, in µg/mL): 1; MIC (KP13368; [2]): 16; MIC (EMRSA15; EMRSA15, in µg/mL): 4
1 | 4 | 0.5 | 0.25-0.5 | ≤0.125 | ≤0.125 | 8 (≈ 18.8 µM) | 0.5 | ≤0.125 | 1 | 0.25 | C[C@H]1COc2c(N3CC[C@@H](Nc4cnccn4)C3)c(F)cc3c(=O)c(C(=O)O)cn1c23 [KSN-BL1, (S)-9-fluoro-3-methyl-7-oxo-10-((R)-3-(pyrazin-2-ylamino)pyrrolidin-1-yl)-2,3-dihydro-7H-[1,4]oxazino[2,3,4-ij]quinoline-6-carboxylic acid] | – | – | – | – | – | – | – | – | – | MIC, EMRSA16 (EMRSA16; EMRSA16 (Table 16, role of the terminal pyrimidine ring), in µg/mL): 1; MIC (EMRSA16; [6]): 1 µg/mL (≈ 2.35 µM); MIC (PA01; [7]): 4 µg/mL (≈ 9.4 µM); MIC (M6; [8]): 0 to 5 µg/mL; MIC (EC12923; [9]): 0.25 µg/mL (≈ 0.588 µM); MIC (MSSA9144; [10]): ≤ 0.125 µg/mL; MIC (VSE775; [11]): ≤ 0.125 µg/mL; MIC (KP13368; [12]): 8 µg/mL (≈ 18.8 µM); MIC (VRE12201; [13]): ≤ 0.125 µg/mL; MIC, EMRSA15 (EMRSA15; EMRSA15 (Table 16, role of the terminal pyrimidine ring), in µg/mL): 1; MIC (EMRSA15; [14]): 1 µg/mL (≈ 2.35 µM); MIC (AYE; Acinetobacter baumannii (AYE), Gram-Negative, read-out: MIC): 8 µg/mL (≈ 18.8 µM); MIC, AYE (AYE; in µg/mL): 8; MIC (Ab17978; [15]): 0.25 µg/mL (≈ 0.588 µM)
64 | 64 | 4 | 2 | 0.5-1 | 4 | 64 (≈ 149 µM) | 8 | 2 | 64 | 4 | C[C@H]1COc2c(N3CCC(N4CCN(C)CC4)C3)c(F)cc3c(=O)c(C(=O)O)cn1c23 (stereo partly drawn) [KSN-L31, (3S)-9-fluoro-3-methyl-10-(3-(4-methylpiperazin-1-yl)pyrrolidin-1-yl)-7-oxo-2,3-dihydro-7H-[1,4]oxazino[2,3,4-ij]quinoline-6-carboxylic acid] | – | – | – | – | – | – | – | – | – | –
16-32 | 32-64 | 8 | 2 | 0.25 | 4 | 32 (≈ 76.7 µM) | 4 | 2 | 16 | 2 | C[C@H]1COc2c(N3CCC(N4CCOCC4)C3)c(F)cc3c(=O)c(C(=O)O)cn1c23 (stereo partly drawn) [KSN-L33, (3S)-9-fluoro-3-methyl-10-(3-morpholinopyrrolidin-1-yl)-7-oxo-2,3-dihydro-7H-[1,4]oxazino[2,3,4-ij]quinoline-6-carboxylic acid] | – | – | – | – | – | – | – | – | – | –
32 | 0.25-0.5 | ≤0.125 | ≤0.125 | 0.25 | 1-4 | 4 (≈ 11.5 µM) | 1 | 0.5-1 | 32 | 2 | C[C@H]1COc2c(N3CC[C@@H](N)C3)c(F)cc3c(=O)c(C(=O)O)cn1c23 [KSN-L44-D, (S)-10-((R)-3-aminopyrrolidin-1-yl)-9-fluoro-3-methyl-7-oxo-2,3-dihydro-7H-[1,4]oxazino[2,3,4-ij]quinoline-6-carboxylic acid] | – | – | – | – | – | – | – | – | – | MIC, PA13437 (PA13437): 32 µg/mL (≈ 92.1 µM)
4 | 8 | 1 | 1 | ≤0.125 | ≤0.125 | 16 (≈ 36.3 µM) | 1 | ≤0.125 | 1 | 0.25 | C[C@H]1COc2c(N3CC[C@H](Nc4ncc(N)cn4)C3)c(F)cc3c(=O)c(C(=O)O)cn1c23 [KSN-L62, (S)-10-((S)-3-((5-aminopyrimidin-2-yl)amino)pyrrolidin-1-yl)-9-fluoro-3-methyl-7-oxo-2,3-dihydro-7H-[1,4]oxazino[2,3,4-ij]quinoline-6-carboxylic acid] | – | – | – | – | – | – | – | – | – | MIC, AYE (AYE; in µg/mL): 4
– | – | – | – | – | – | – | – | – | – | – | O=C(O)c1cn(C2CC2)c2cc(N3CCN(Cc4cccc5c4OCO5)CC3)c(F)cc2c1=O [ML-77-032] | 64 | 16 | 2 | 0.25-1 | 2 | – | 1 | 64 | 0.25 | –
– | – | – | – | – | – | – | – | – | – | – | O=C(O)c1cn(C2CC2)c2cc(N3CCN(Cc4ccccc4)CC3)c(F)cc2c1=O [ML-77-046] | 32 | – | 2 | 0.12-0.25 | 2-4 | 4-8 | 1-2 | 64-128 | 0.25 | –
– | – | – | – | – | – | – | – | – | – | – | O=C(O)c1cn(C2CC2)c2cc(N3CCN(Cc4ccc(CO)cc4)CC3)c(F)cc2c1=O [ML-77-147] | 8 | – | 0.5-1 | <0.12 | 1 | – | 0.5 | 16-32 | 0.25-0.5 | MIC (EMRSA15; EMRSA15, in µg/mL): 8
2 | 64 | 4 | 2 | – | < 0.125 - 0.5 | 32 (≈ 72.2 µM) | 1-4 | – | 2 | 2 | C[C@H]1COc2c(N3CCN(c4ncc(F)cn4)CC3)c(F)cc3c(=O)c(C(=O)O)cn1c23 [ML-83-010] | – | – | – | – | – | – | – | – | – | MIC (EMRSA16; [6]): 2 µg/mL (≈ 4.51 µM); MIC (PA01; [7]): 64 µg/mL (≈ 144 µM); MIC (M6; [8]): 4 µg/mL (≈ 9.02 µM); MIC (EC12923; [9]): 2 µg/mL (≈ 4.51 µM); MIC (MSSA9144; [10]): ≤ 0.125 µg/mL; MIC (VSE775; [11]): 0.5 µg/mL (≈ 1.13 µM); MIC (KP13368; [12]): 32 µg/mL (≈ 72.2 µM); MIC (VRE12201; [13]): ≤ 0.125 µg/mL; MIC (EMRSA15; [14]): 2 µg/mL (≈ 4.51 µM); MIC (Ab17978; [15]): 2 µg/mL (≈ 4.51 µM)
– | – | – | – | – | – | – | – | – | – | – | C[C@H]1COc2c(N3CCN(c4ccccn4)CC3)c(F)cc3c(=O)c(C(=O)O)cn1c23 [ML-83-0018, (S)-9-fluoro-3-methyl-7-oxo-w-(4-(pyridin-2-yl)piperazin-1-yl)-2,3-dihydro-7H-[1,4]oxazino[2,3,4-ij]quinoline-6-carboxylic acid] | 8 | 64 | 8 | ≤0.12 | 0.25-0.5 | 2 | 0.25 | – | 2 | MIC (EC12923; EC12923, in µg/mL): 2-4; MIC (KP13368; [2]): 32; MIC (EMRSA15; EMRSA15, in µg/mL): 4
– | – | – | – | – | – | – | – | – | – | – | C[C@H]1COc2c(N3CCCN(c4cnccn4)CC3)c(F)cc3c(=O)c(C(=O)O)cn1c23 [ML-83-041 (5.16), (S)-9-fluoro-3-methyl-7-oxo-10-(4-(pyrazin-2-yl)-1,4-diazepan-1-yl)-2,3-dihydro-7H-[1,4]oxazino[2,3,4-ij]quinoline-6-carboxylic acid] | 8 | 16-32 | 2 | ≤0.125 | 1 | 4 | 0.5-1 | 64-128 | 1 | MIC (EC12923; EC12923, in µg/mL): 1-2; MIC (KP13368; [2]): 16-32; MIC (EMRSA15; EMRSA15, in µg/mL): 4-8
